In paper PMC8079033, “Design, synthesis, anticancer evaluation, and molecular modelling studies of novel tolmetin derivatives as potential VEGFR-2 inhibitors and apoptosis inducers” (Journal of Enzyme Inhibition and Medicinal Chemistry, 2021):

Key:
[1] = system: ACHN; test: NCI 60-cell line one-dose antiproliferative screen (SRB); assay type: cell-based; details: Homo sapiens, read-out: growth inhibition % (GI%)
Description: (§1) Anticancer activity screening of the newly synthesised compounds was measured in vitro utilising 60 different human tumour cell lines provided by US National Cancer Institute according to previously reported standard procedure[41–43] as follows: Cells are inoculated into 96-well microtiter plates in 100 ml. After cell inoculation, the microtiter plates are incubated at 37 °C, 5% CO2, 95% air, and 100% relative humidity for 24 h prior to addition of experimental compounds. After 24 h, two plates of each cell line are fixed in situ with TCA, to represent a measurement of the cell population for each cell line at the time of compound addition (Tz). Experimental compounds are solubilised in dimethyl sulfoxide at 400-fold the desired final maximum test concentration and stored frozen prior to use. At the time of compound addition, an aliquot of frozen concentrate is thawed and diluted to twice the desired final maximum test concentration with a complete medium containing […] gentamicin. Aliquots of […] of the compounds dilutions are added to the appropriate microtiter wells already containing 100 ml of medium, resulting in the required final compound concentration. Following compound addition, the plates are incubated for an additional 48 h at 37 °C, 5% CO2, 95% air, and 100% relative humidity. For adherent cells, the assay is terminated by the addition of cold trichloroacetic acid (TCA). Cells are fixed in situ by the gentle addition of 50 ml of cold 50% (w/v) TCA (final concentration, 10% TCA) and incubated for […] at 4 °C. The supernatant is discarded, and the plates are washed five times with tap water and air-dried. Sulforhodamine B (SRB) solution (100 ml) at 0.4% (w/v) in 1% acetic acid is added to each well, and plates are incubated for 10 min at room temperature. After staining, the unbound dye is removed by washing five times with 1% acetic acid and the plates are air-dried. The bound stain is subsequently solubilised with a 10 mM trizma base, and the absorbance is read on an automated plate reader at a wavelength of 515 nm. For suspension cells, the methodology is the same except that the assay is terminated by fixing settled cells at the bottom of the wells by gently adding 50 ml of 80% TCA (final concentration, 16% TCA). Using the absorbance measurements [time zero, (Tz), control growth, (C), and test growth in the presence of compound (Ti)], the percentage growth is calculated for each compound. The One-dose data are reported as a mean graph of the percent growth of treated cells. The reported number is growth relative to the no-compound control, and relative to the time zero number of cells. This allows the detection of both growth inhibition and lethality.
(§2) Fifteen newly synthesised compounds were tested for their in vitro antiproliferative activity by the National Cancer Institute (NCI), Maryland, USA[50], under the Developmental Therapeutic Program (DTP)[41]^,[43]^,[51]^,[52]. The tested compounds were evaluated at a concentration of 10 µM on a panel of 60 tumour cell lines representing leukaemia and non-small cell lung, colon, CNS, melanoma, ovarian, renal, prostate, and breast cancers. The antiproliferative activity was presented by the NCI as percent growth of the treated cells and is presented in Table 1 as growth inhibition percentage (GI%) achieved by the tested compounds.

[2] = system: CAKI-1; test: as above; assay type: cell-based; details: Homo sapiens, read-out: growth inhibition % (GI%)
Description: as §1, §2

[3] = system: HOP-62; test: as above; assay type: cell-based; details: Homo sapiens, read-out: growth inhibition % (GI%)
Description: as §1, §2

[4] = system: HOP-92; test: as above; assay type: cell-based; details: Homo sapiens, read-out: growth inhibition % (GI%)
Description: as §1, §2

[5] = system: IGROV1; test: as above; assay type: cell-based; details: Homo sapiens, IGROV-1, read-out: growth inhibition % (GI%)
Description: as §1, §2

[6] = system: K-562; test: as above; assay type: cell-based; details: Homo sapiens, K562, read-out: growth inhibition % (GI%)
Description: as §1, §2

[7] = system: LOX IMVI; test: as above; assay type: cell-based; details: Homo sapiens, read-out: growth inhibition % (GI%)
Description: as §1, §2

[8] = system: MCF7; test: as above; assay type: cell-based; details: Homo sapiens, read-out: growth inhibition % (GI%)
Description: as §1, §2

[9] = system: MDA-MB-231/ATCC; test: as above; assay type: cell-based; details: Homo sapiens, read-out: growth inhibition % (GI%)
Description: as §1, §2

[10] = system: MDA-MB-435; test: as above; assay type: cell-based; details: Homo sapiens, read-out: growth inhibition % (GI%)
Description: as §1, §2

[11] = system: MDA-MB-468; test: as above; assay type: cell-based; details: Homo sapiens, read-out: growth inhibition % (GI%)
Description: as §1, §2

[12] = system: NCI-H226; test: as above; assay type: cell-based; details: Homo sapiens, read-out: growth inhibition % (GI%)
Description: as §1, §2

[13] = system: NCI-H522; test: as above; assay type: cell-based; details: Homo sapiens, read-out: growth inhibition % (GI%)
Description: as §1, §2

[14] = system: NCI/ADR-RES; test: as above; assay type: cell-based; details: Homo sapiens, read-out: growth inhibition % (GI%)
Description: as §1, §2

[15] = system: OVCAR-5; test: as above; assay type: cell-based; details: Homo sapiens, read-out: growth inhibition % (GI%)
Description: as §1, §2

[16] = system: OVCAR-8; test: as above; assay type: cell-based; details: Homo sapiens, read-out: growth inhibition % (GI%)
Description: as §1, §2

[17] = system: PC-3; test: as above; assay type: cell-based; details: Homo sapiens, read-out: growth inhibition % (GI%)
Description: as §1, §2

[18] = system: SF-268; test: as above; assay type: cell-based; details: Homo sapiens, read-out: growth inhibition % (GI%)
Description: as §1, §2

[19] = system: SF-295; test: as above; assay type: cell-based; details: Homo sapiens, read-out: growth inhibition % (GI%)
Description: as §1, §2

[20] = system: SF-539; test: as above; assay type: cell-based; details: Homo sapiens, read-out: growth inhibition % (GI%)
Description: as §1, §2

[21] = system: SK-MEL-5; test: as above; assay type: cell-based; details: Homo sapiens, read-out: growth inhibition % (GI%)
Description: as §1, §2

[22] = system: SN 12 C; test: as above; assay type: cell-based; details: Homo sapiens, SN12C, read-out: growth inhibition % (GI%)
Description: as §1, §2

[23] = system: SNB-19; test: as above; assay type: cell-based; details: Homo sapiens, read-out: growth inhibition % (GI%)
Description: as §1, §2

[24] = system: SNB-75; test: as above; assay type: cell-based; details: Homo sapiens, read-out: growth inhibition % (GI%)
Description: as §1, §2

[25] = system: SW-620; test: as above; assay type: cell-based; details: Homo sapiens, read-out: growth inhibition % (GI%)
Description: as §1, §2

[26] = system: T-47D; test: as above; assay type: cell-based; details: Homo sapiens, T47D, read-out: growth inhibition % (GI%)
Description: as §1, §2

[27] = system: U251; test: as above; assay type: cell-based; details: Homo sapiens, U-251, read-out: growth inhibition % (GI%)
Description: as §1, §2

[28] = system: UACC-62; test: as above; assay type: cell-based; details: Homo sapiens, read-out: growth inhibition % (GI%)
Description: as §1, §2

[29] = system: UO-31; test: as above; assay type: cell-based; details: Homo sapiens, read-out: growth inhibition % (GI%)
Description: as §1, §2

melting point: 157 to 159 °C
SMILES: Cc1ccc(C(=O)c2ccc(CC(=O)NN=C3C(=O)Nc4ccc(OC(F)(F)F)cc43)n2C)cc1 [Compound 6c, 2–(1-Methyl-5–(4-methylbenzoyl)-1H-pyrrol-2-yl)-N′-(2-oxo-5-(trifluoromethoxy)indolin-3-ylidene)acetohydrazide]
inhibition at 10 µM [1]: < 10% | inhibition at 10 µM [2]: 12.6% | inhibition at 10 µM [3]: 11.1% | inhibition at 10 µM [4]: < 10% | inhibition at 10 µM [5]: < 10% | inhibition at 10 µM [6]: < 10% | inhibition at 10 µM [7]: < 10% | inhibition at 10 µM [8]: < 10% | inhibition at 10 µM [9]: < 10% | inhibition at 10 µM [10]: < 10% | inhibition at 10 µM [11]: < 10% | inhibition at 10 µM [12]: < 10% | inhibition at 10 µM [13]: 11.9% | inhibition at 10 µM [14]: < 10% | inhibition at 10 µM [15]: < 10% | inhibition at 10 µM [16]: < 10% | inhibition at 10 µM [17]: < 10% | inhibition at 10 µM [18]: < 10% | inhibition at 10 µM [19]: < 10% | inhibition at 10 µM [20]: < 10% | inhibition at 10 µM [21]: < 10% | inhibition at 10 µM [22]: < 10% | inhibition at 10 µM [23]: < 10% | inhibition at 10 µM [24]: 37.1% | inhibition at 10 µM [25]: < 10% | inhibition at 10 µM [26]: < 10% | inhibition at 10 µM [27]: < 10% | inhibition at 10 µM [28]: < 10% | inhibition at 10 µM [29]: 24.3%
